Data reported in PubChem BioAssay (NCI).
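A five-concentration, 48-hour dose response in 96-well plates underlies each endpoint, interpolated linearly between surrounding concentrations. TGI is the concentration that stops growth completely.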

Assays:
Assay in all cases: growth of human tumour cells (NCI), 48 h
[1] = system: HCC-2998 colon
[2] = system: SF-268 CNS
[3] = system: SNB-75 CNS
[4] = system: U251 CNS
[5] = system: 786-0 renal
[6] = system: LOX IMVI melanoma
[7] = system: UACC-257 melanoma
[8] = system: IGROV1 ovarian
[9] = system: TK-10 renal
[10] = system: SN12C renal
[11] = system: RPMI-8226 leukemia
[12] = system: SK-MEL-28 melanoma
[13] = system: SF-539 CNS
[14] = system: OVCAR-3 ovarian
[15] = system: ACHN renal
[16] = system: SNB-19 CNS
[17] = system: SK-OV-3 ovarian
[18] = system: T-47D breast
[19] = system: CAKI-1 renal
[20] = system: SF-295 CNS

Row | Structure (SMILES) | TGI [1] [µM] | TGI [2] [µM] | TGI [3] [µM] | TGI [4] [µM] | TGI [5] [µM] | TGI [6] [µM] | TGI [7] [µM] | TGI [8] [µM] | TGI [9] [µM] | TGI [10] [µM] | TGI [11] [µM] | TGI [12] [µM] | TGI [13] [µM] | TGI [14] [µM] | TGI [15] [µM] | TGI [16] [µM] | TGI [17] [µM] | TGI [18] [µM] | TGI [19] [µM] | TGI [20] [µM]
1 | COc1ccc(C(=O)Cn2c(C(=O)/C=C/c3ccco3)nc3ccccc32)cc1 | 37.1 | 91.4 | > 100 | > 100 | > 100 | > 100 | > 100 | > 100 | > 100 | > 100 | 88.7 | > 100 | > 100 | 72.3 | > 100 | > 100 | 97.4 | > 100 |  | 
2 | C=C(C)C1Cc2c(cc(O)c3c(=O)c4c(oc23)C(O)Oc2cc(OC)c(OC)cc2-4)O1 (stereo not given) | > 10 | > 10 |  | > 10 | > 10 |  | > 10 | > 10 | > 10 | > 10 | > 10 | > 10 | > 10 | > 10 | > 10 | > 10 |  | > 10 | > 10 | > 10
3 | CCCCCCCCCc1cc(-c2ccc(C=O)s2)sc1-c1ccc(C=O)s1 | > 78.7 | > 100 | > 91.1 | 29 | > 85.2 | 37 | 30.8 | 56.3 | 34.7 | > 84 | 51.2 | > 100 | > 84.3 | 38.2 | > 100 | > 87.1 | 67.2 | > 85.6 |  | > 100
4 | COc1ccc2nc3ccc(OC)cc3c(SCc3ccc([N+](=O)[O-])cc3)c2c1 | > 100 | > 100 | > 100 |  | > 100 | > 100 | > 100 | > 100 | > 100 | > 100 |  | > 100 | > 100 | > 100 | > 100 | > 100 | > 100 | > 100 | > 100 | > 100
5 | CC(=O)O[C@H]1C(=O)[C@@]2(C)[C@H]([C@H](OC(=O)c3cccc(C(F)(F)F)c3)[C@]3(O)C[C@H](OC(=O)[C@H](O)[C@@H](NC(=O)c4ccccc4)c4ccccc4)C(C)=C1C3(C)C)[C@]1(OC(C)=O)CO[C@@H]1C[C@@H]2O |  | > 25 |  | 0.0196 | 4.49 |  | 8.27 | > 23 | 8.88 | > 25 | 0.0862 | > 25 | 0.0105 | 8.03 | > 9.46 | > 25 | > 25 | > 25 | > 25 | 13.3
6 | Nc1nc(N)c(C2=CCNCC2)c(=O)[nH]1 |  | > 100 | > 100 | > 100 | > 100 |  | > 100 | > 100 |  | > 100 | > 100 | > 100 | > 100 | > 100 | > 100 | > 100 | > 100 | > 100 | > 100 | > 100
7 | c1cc(Sc2nc(Sc3ccncc3)nc(Sc3ccncc3)n2)ccn1 | > 100 | > 100 |  | > 100 | > 100 | > 100 | > 100 | > 100 | > 100 | > 100 | > 100 | > 100 | > 100 | > 100 | > 100 | > 100 | > 100 | > 100 | > 100 | > 100
8 | COc1ccc(C2CC(c3ccccc3)=Nc3c(-c4ccccc4)nnn32)cc1 (stereo not given) |  | > 100 |  | > 100 | > 100 | > 100 | > 100 | > 100 |  | > 100 | 82.6 |  | > 100 | > 100 | > 100 | > 100 | > 100 | 59.6 | > 100 | > 100
9 | O=S1CCS(=O)CCS(=O)CC1 (stereo not given) | > 100 | > 100 | > 100 | > 100 | > 100 | > 100 | > 100 | > 100 | > 100 | > 100 |  | > 100 | > 100 | > 100 |  | > 100 | > 100 | > 100 |  | > 100
10 | CC(=O)Nc1ccc(NC(=O)c2c(Cl)c(Cl)c(Cl)c(Cl)c2-c2nc3ccccc3[nH]2)cc1 | > 100 | > 100 | > 100 |  | > 100 |  | > 100 | > 100 |  | > 100 | 71 | > 100 | > 100 | > 100 | > 100 | > 100 | > 100 | > 100 | > 100 | > 100
